IC50 data for eight compounds are collected here from patent US9751842B2, “Phthalazine derivatives” (Merck Patent GmbH, priority 2013, dated 2017).

Structures are written as SMILES.

For assay [1], the target named is T1, GST-tagged Tankyrase-2 (873-1166 aa) (Homo sapiens, UniProt Q9H2K2).
T1 construct: GST-tagged Tankyrase-2 (873-1166 aa)
Description: Tankyrase 2 autoparsylation HTRF enzyme assay. The conditions noted are these: HTRF autoparsylation, 90 min at 30° C; read-out: IC50 TNKS2 enzyme assay. Type of assay: biochemical. The method, then: Biochemical Activity Testing of Tankyrase 1 and 2: Autoparsylation Assay
The autoparsylation assay is run in two steps: the enzymatic reaction in which GST-tagged Tankyrase-1, resp Tankyrase-2 transferred biotinylated ADP-ribose to itself from biotinylated NAD as co-substrate and the detection reaction where a time resolved FRET between cryptate labelled anti-GST bound to the GST tag of the enzyme and Xlent® labelled-streptavidin bound the biotin-parsylation residue is analysed. The autoparsylation activity was detectable directly via the increase in HTRF signal.
The autoparsylation assay is performed as 384-well HTRF® (Cisbio, Codolet, France) assay format in Greiner low volume nb 384-well microtiter plates and is used for high throughput screen. 250 nM GST-tagged Tankyrase-1 (1023-1327 aa), respectively about 250 nM GST-tagged Tankyrase-2 (873-1166 aa) and 5 μM bio-NAD (Biolog, Life science Inst., Bremen, Germany) as co-substrate are incubated in a total volume of 5 μl (50 mM HEPES, 4 mM Mg-chloride, 0.05% Pluronic F-68, 1.4 mM DTT, 0.5% DMSO, pH 7.7) in the absence or presence of the test compound (10 dilution concentrations) for 90 min at 30° C. The reaction is stopped by the addition of 1 μl 50 mM EDTA solution. 2 μl of the detection solution (1.6 μM SA-Xlent® (Cisbio, Codolet, France), 7.4 nM Anti-GST-K® (Eu-labelled anti-GST, Cisbio, Codolet, France) in 50 mM HEPES, 800 mM KF, 0.1° A. BSA, 20 mM EDTA, 0.1% CHAPS, pH 7.0) are added. After 1 h incubation at room temperature the HTRF is measured with an Envision multimode reader (Perkin Elmer LAS Germany GmbH) at excitation wavelength 340 nm (laser mode) and emission wavelengths 615 nm and 665 nm. The ratio of the emission signals is determined. The full value used is the inhibitor-free reaction. The pharmacological zero value used is XAV-939 (Tocris) in a final concentration of 5 μM. The inhibitory values (IC50) are determined using either the program Symyx Assay Explorer® or Condosseo® from GeneData.
In general terms: In TR-FRET formats the signal depends on donor and acceptor labels being close together.

The next assay deals with T2, His-tagged Parp-1 (Homo sapiens, UniProt P09874).
T2 construct: purchased Enzo Life Sciences GmbH, Lörrach, Germany
T2 sequence (P09874 whole entry): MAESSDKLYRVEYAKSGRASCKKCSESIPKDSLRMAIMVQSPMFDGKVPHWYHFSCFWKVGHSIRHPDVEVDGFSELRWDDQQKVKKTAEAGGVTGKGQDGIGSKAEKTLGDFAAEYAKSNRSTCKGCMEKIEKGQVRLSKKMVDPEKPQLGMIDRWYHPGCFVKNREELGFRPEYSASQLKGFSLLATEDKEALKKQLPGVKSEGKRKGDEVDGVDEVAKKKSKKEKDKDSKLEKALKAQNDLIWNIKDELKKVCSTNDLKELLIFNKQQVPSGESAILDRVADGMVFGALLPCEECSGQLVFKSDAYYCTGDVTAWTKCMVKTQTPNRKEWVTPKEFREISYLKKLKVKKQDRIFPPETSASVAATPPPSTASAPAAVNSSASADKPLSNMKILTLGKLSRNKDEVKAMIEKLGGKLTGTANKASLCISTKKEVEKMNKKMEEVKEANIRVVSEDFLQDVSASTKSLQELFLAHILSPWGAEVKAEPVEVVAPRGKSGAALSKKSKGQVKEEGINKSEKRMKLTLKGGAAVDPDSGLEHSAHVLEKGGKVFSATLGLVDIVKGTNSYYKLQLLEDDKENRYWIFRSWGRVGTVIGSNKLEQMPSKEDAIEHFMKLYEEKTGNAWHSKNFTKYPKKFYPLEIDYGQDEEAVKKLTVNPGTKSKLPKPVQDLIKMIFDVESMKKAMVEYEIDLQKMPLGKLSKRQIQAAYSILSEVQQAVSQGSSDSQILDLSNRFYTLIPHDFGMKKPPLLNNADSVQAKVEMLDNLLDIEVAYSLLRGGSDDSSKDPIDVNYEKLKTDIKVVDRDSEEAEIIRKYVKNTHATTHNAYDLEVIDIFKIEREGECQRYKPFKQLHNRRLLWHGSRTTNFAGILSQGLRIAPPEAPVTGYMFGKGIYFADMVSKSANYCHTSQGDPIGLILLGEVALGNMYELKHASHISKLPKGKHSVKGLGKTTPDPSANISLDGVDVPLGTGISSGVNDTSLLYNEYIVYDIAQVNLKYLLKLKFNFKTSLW
Description: PARP-1 autoparsylation HTRF assay. Conditions: 150 min at 23° C. Type of assay: biochemical. The source says:
Description of the PARP1 Assay
Biochemical Activity Testing of PARP-1: Autoparsylation Assay
The autoparsylation assay is run in two steps: the enzymatic reaction in which His-tagged Parp-1 transfers biotinylated ADP-ribose/ADP-ribose to itself from biotinylated NAD/NAD as co-substrate and the detection reaction where a time resolved FRET between cryptate labelled anti-His antibody bound to the His tag of the enzyme and Xlent® labelled-streptavidin bound the biotin parsylation residue is analysed. The autoparsylation activity is detectable directly via the increase in HTRF signal.
The autoparsylation assay is performed as 384-well HTRF® (Cisbio, Codolet, France) assay format in Greiner low volume nb 384-well microtiter plates. 35 nM His-tagged Parp-1 (human, recombinant, Enzo Life Sciences GmbH, Lörrach, Germany) and a mixture of 125 nM bio-NAD (Biolog, Life science Inst., Bremen, Germany) and 800 nM NAD as co-substrate are incubated in a total volume of 6 μl (100 mM Tris/HCl, 4 mM Mg-chloride, 0.01% IGEPAL® CA630, 1 mM DTT, 0.5% DMSO, pH 8, 13 ng/μl activated DNA (BPS Bioscience, San Diego, US)) in the absence or presence of the test compound (10 dilution concentrations) for 150 min at 23° C. The reaction is stopped by the addition of 4 μl of the Stop/detection solution (70 nM SA-Xlent® (Cisbio, Codolet, France), 2.5 nM Anti-His-K® (Eu-labelled anti-His, Cisbio, Codolet, France) in 50 mM HEPES, 400 mM KF, 0.1% BSA, 20 mM EDTA, pH 7.0). After 1 h incubation at room temperature the HTRF is measured with an Envision multimode reader (Perkin Elmer LAS Germany GmbH) at excitation wavelength 340 nm (laser mode) and emission wavelengths 615 nm and 665 nm. The ratio of the emission signals is determined. The full value used is the inhibitor-free reaction. The pharmacological zero value used is Olaparib (LClabs, Woburn, US) in a final concentration of 1 μM. The inhibitory values (IC50) are determined using either the program Symyx Assay Explorer® or Condosseo® from GeneData.

The test system of assay [2] is Tankyrase (Axin2 level in DLD1 cells). Description: Cellular inhibition of Tankyrase, Axin2 Luminex assay in DLD1 cells. The class given is cell-based. Conditions: Homo sapiens, DLD-1, 24 hours, Axin2 level increase, read-out: IC50 Cell assay. The method, then: Measurement of Cellular Inhibition of Tankyrase
Since Tankyrases have been described to modulate cellular level of Axin2 (Huang et al., 2009; Nature) the increase of Axin2 level is used as read-out for determination of cellular inhibition of Tankyrases in a Luminex based assay.
Cells of the colon carcinoma cell line DLD1 are plated in 96 well plates with 1.5×10^4 cells per well. Next day, cells are treated with a serial dilution of test compound in seven steps as triplicates with a final DMSO concentration of 0.3%. After 24 hours, cells are lysed in lysis buffer (20 mM Tris/HCl pH 8.0, 150 mM NaCl, 1% NP40, 10% Glycerol) and lysates are cleared by centrifugation through a 96 well filter plate (0.65 μm). Axin2 protein is isolated from cell lysates by incubation with a monoclonal anti-Axin2 antibody (R&D Systems #MAB6078) that is bound to fluorescent carboxybeads. Then, bound Axin2 is specifically detected with a polyclonal anti-Axin2 antibody (Cell Signaling #2151) and an appropriate PE-fluorescent secondary antibody. The amount of isolated Axin2 protein is determined in a Luminex^200 machine (Luminex Corporation) according to the manufacturer's instruction by counting 100 events per well. Inhibition of Tankyrase by test compounds results in higher levels of Axin2 which directly correlates with an increase of detectable fluorescence. As controls cells are treated with solvent alone (neutral control) and with a Tankyrase reference inhibitor IWR-2 (3E-06 M) which refers as control for maximum increase of Axin2. For analysis, the obtained data are normalized against the untreated solvent control and fitted for determination of the EC50 values using the Assay Explorer software (Accelrys).

T1 sequence (Q9H2K2 873-1166): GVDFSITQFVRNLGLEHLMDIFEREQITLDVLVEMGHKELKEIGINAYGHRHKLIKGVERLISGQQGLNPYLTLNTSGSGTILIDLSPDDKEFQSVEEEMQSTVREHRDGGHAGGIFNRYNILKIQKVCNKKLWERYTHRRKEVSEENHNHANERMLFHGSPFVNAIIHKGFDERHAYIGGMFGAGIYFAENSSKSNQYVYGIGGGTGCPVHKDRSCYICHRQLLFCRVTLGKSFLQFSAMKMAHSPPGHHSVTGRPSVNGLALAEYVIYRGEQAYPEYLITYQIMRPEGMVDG

In general, IC50 refers to the point on the concentration scale where inhibition reaches its midpoint. As for `O=C(Cc1ccccc1)Nc1nncc2ccccc12` [Compound A1, 2-phenyl-N-phthalazin-1-yl-acetamide], the results for the IC50 (in assay [1]; against His-tagged Parp-1; in assay [2]) were 0.3 to 3 µM, 3 to 50 µM and 3 to 50 µM, respectively.

With `COc1cccc(CC(=O)Nc2nncc3ccccc23)c1` [Compound A2, 2-(3-methoxyphenyl)-N-phthalazin-1-yl-acetamide], the IC50 in assay [1] is 0.3 to 3 µM; at His-tagged Parp-1, 3 to 50 µM; in assay [2], 3 to 50 µM.

Consider `COc1ccc(CC(=O)Nc2nncc3ccccc23)cc1` [Compound A3, 2-(4-methoxyphenyl)-N-phthalazin-1-yl-acetamide], for which the IC50 in assay [1] was in the range of 0.3 to 3 µM; on His-tagged Parp-1 it was 3 to 50 µM; in assay [2], 3 to 50 µM.

On to `CCOc1ccc(CC(=O)Nc2nncc3ccccc23)cc1` [Compound A4, 2-(4-ethoxyphenyl)-N-phthalazin-1-yl-acetamide], for which the IC50 in assay [1] lay in the range of 0.3 to 3 µM; against His-tagged Parp-1 it was 3 to 50 µM; in assay [2], 3 to 50 µM.

Regarding `O=C(CCC1CCCC1)Nc1nncc2ccccc12` [Compound A15, 3-cyclopentyl-N-phthalazin-1-yl-propionamide], the IC50 in assay [1] is less than 0.3 µM; against His-tagged Parp-1, 3 to 50 µM; in assay [2] it was 3 to 50 µM.

With `O=C(CCc1ccccc1Cl)Nc1nncc2ccccc12` [Compound A16, 3-(2-chloro-phenyl)-N-phthalazin-1-yl-propionamide], the IC50 in assay [1] was less than 0.3 µM; on His-tagged Parp-1, 3 to 50 µM; in assay [2], 3 to 50 µM.

Regarding `Cc1cccc2cnnc(NC(=O)Cc3ccccc3)c12` [Compound A18, N-(8-methyl-phthalazin-1-yl)-2-phenyl-acetamide], the results for the IC50 (in assay [1]; on His-tagged Parp-1; in assay [2]) were 0.3 to 3 µM, 0.3 to 3 µM and 3 to 50 µM, respectively.

As to `COc1ccc(CC(=O)Nc2nncc3cccc(C)c23)cc1` [Compound A20, 2-(4-methoxy-phenyl)-N-(8-methyl-phthalazin-1-yl)-acetamide], the IC50 in assay [1] was in the range of 0.3 to 3 µM; against His-tagged Parp-1, 0.3 to 3 µM; in assay [2], 3 to 50 µM.
